Measurements reported in US8119672B2, “Compounds, compositions and methods for treating or preventing pneumovirus infection and associated diseases” (Microdose Therapeutx, Inc., priority 2002, dated 2012).

Experiment: Solubility in ethanol/propylene glycol/water (85:10:5)
Format: physicochemical
Settings: R1 in meta position (compound of the invention); ethanol/propylene glycol/water (85:10:5) by volume
Procedure: The solubilities are measured in ethanol/propylene glycol/water (85:10:5) (proportions are by volume).

Compound	Meta Position Solubiity [mg/mL]
CCCc1cccc(C(c2cc(C=Nn3nnnc3C)ccc2O)c2cc(C=Nn3nnnc3C)ccc2O)c1 (stereo not drawn) [Example 1, 2,2′-[(3-Propylphenyl)methylene]bis[4-[[(5-methyl-1H-tetrazol-1-yl)imino]methyl]]phenol]	1.9
3-[[Bis[[5-(5-methyl-1H-tetrazol-1-yl)imino]methyl]-2-hydroxyphenyl]methylene] -N,N-dimethylbenzenesulfonamide [Example 31]	0.08
Cc1nnnn1N=Cc1ccc(O)c(C(c2cccc(N(C)C)c2)c2cc(C=Nn3nnnc3C)ccc2O)c1 (stereo not drawn) [Example 2, 2,2′-[[(3-Dimethylamino)phenyl]methylene]bis[4-[[(5-methyl-1H-tetrazol-1-yl)imino]methyl]]phenol]	2.10
CCOc1cccc(C(c2cc(C=Nn3nnnc3C)ccc2O)c2cc(C=Nn3nnnc3C)ccc2O)c1 (stereo not drawn) [Example 6, 2,2′-[(3-Ethoxyphenyl)methylene]bis[4-[[(5-methyl-1H-tetrazol-1-yl)imino]methyl]]phenol]	1.85
CCN(CC)c1cccc(C(c2cc(C=Nn3nnnc3C)ccc2O)c2cc(C=Nn3nnnc3C)ccc2O)c1 (stereo not drawn) [Example 20, 2,2′-[[(3-Diethylamino)phenyl]methylene]bis[4-[[(5-methyl-1H-tetrazol-1-yl)imino]methyl]]phenol]	1.45
Cc1nnnn1N=Cc1ccc(O)c(C(c2cccc([N+](=O)[O-])c2)c2cc(C=Nn3nnnc3C)ccc2O)c1 (stereo not drawn) [Example 27, 2,2′-[(3-Nitrophenyl)methylene]bis[4-[[(5-methyl-1H-tetrazol-1-yl)imino]methyl]]phenol]	0.98
